Experimental data taken from patent publication US20020028938A1, “Prostaglandin endoperoxide H synthase biosynthesis inhibitors” (priority 1997, published 2002).
pIC50: −log10 of the molar value. Several values for one entry are separate records, joined by “and”; a condition that tells them apart may be missing. Equal values may be shown once.

Columns and labels:
[1] = test system: air pouch prostaglandin biosynthesis (Cox-2); assay: Carrageenan induced air pouch prostaglandin biosynthesis model (CAP); type: in vivo, rat; conditions: 3 mpk, rat; for inhibition in vivo at 3 mg/kg: 4 h, read-out: CAP % Inhib. @ 3 mpk
Procedure, shortened: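 Male Sprague Dawley rats with dorsal air pouches (20 mL air day 0, 10 mL day 3) received 0.2% lambda carrageenan in saline into the pouch on day 7. Compounds dosed at 0.1 to 10 mg/kg 30 min before carrageenan; pouch lavaged 4 h later, prostaglandins measured by EIA. Percent inhibition versus control mean; ED50 by linear regression.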

[2] = biological target: T1, recombinant human Cox-2 (r-hu Cox-2) (Homo sapiens, UniProt P35354); assay: Recombinant human PGHS-2 enzyme assay (RHUCX2); type: biochemical; conditions: for pIC50: read-out: RHUCX2 IC50 (parenthetical value)
T1 construct: made in house; host or cells: baculovirus/Sf9 insect cells (microsomes)
T1 sequence (P35354 18-604): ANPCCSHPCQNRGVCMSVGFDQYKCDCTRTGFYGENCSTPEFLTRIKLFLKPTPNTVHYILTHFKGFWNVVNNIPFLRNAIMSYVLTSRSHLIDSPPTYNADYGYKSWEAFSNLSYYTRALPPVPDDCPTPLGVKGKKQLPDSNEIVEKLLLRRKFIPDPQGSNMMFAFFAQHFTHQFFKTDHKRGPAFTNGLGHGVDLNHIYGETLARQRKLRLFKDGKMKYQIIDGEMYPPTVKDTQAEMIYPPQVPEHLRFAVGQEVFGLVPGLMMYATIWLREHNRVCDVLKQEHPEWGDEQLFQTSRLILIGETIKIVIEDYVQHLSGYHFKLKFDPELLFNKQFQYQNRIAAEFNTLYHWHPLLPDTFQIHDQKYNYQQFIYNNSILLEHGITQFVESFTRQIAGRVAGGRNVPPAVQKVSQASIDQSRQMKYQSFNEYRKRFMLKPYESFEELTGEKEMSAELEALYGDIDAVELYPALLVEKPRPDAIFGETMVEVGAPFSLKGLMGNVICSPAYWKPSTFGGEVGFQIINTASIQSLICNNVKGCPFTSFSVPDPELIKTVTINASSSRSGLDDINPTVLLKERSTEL
Procedure, shortened: (§1)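 PGE2 formed with and without drug quantified by EIA against matrix-matched standards; percent inhibition relative to control mean, IC50 by linear regression.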

[3] = biological target: T2, recombinant human Cox-1 (r-hu Cox1) (Homo sapiens, UniProt P23219); assay: Recombinant human PGHS-1 enzyme assay (RHUCX1); type: biochemical; conditions: for pIC50: read-out: RHUCX1 IC50 (parenthetical value)
T2 construct: made in house; host or cells: baculovirus/Sf9 insect cells (microsomes)
Procedure, shortened: as §1

[4] = test system: prostaglandin biosynthesis in vivo (pleural lavage eicosanoids); assay: Rat carrageenan pleural inflammation (CIP) model; conditions: 10 mpk oral; for inhibition in vivo at 10 mg/kg: 4 h, read-out: CIP % Inhib. @ 10 mpk
Method: (§2) For oral administration, test compounds were suspended on the day of use in 100% polyethyleneglycol (PEG 400) with a motorized homogenizer equipped with a Teflon-coated pestle (TRI-R Instrument, Jamaica, N.Y.).
(§3) To compare the mean responses of the treatment groups, analysis of variance was applied. Percent inhibition values were determined by comparing the individual treatment mean values to the mean of the control group. Linear regression was used to estimate IC50's/ED50's in appropriate assays.
Pleural inflammation was induced in male adrenalectomized Sprague-Dawley rats following the method of Vinegar et al., Fed. Proc. 1976, 35, 2447-2456. Animals were orally dosed with experimental compounds, 30 minutes prior to the intrapleural injection of 2% lambda carrageenan (Sigma Chemical Co., St. Louis Mo.). Four hours later the animals were euthanized and the pleural cavities lavaged with ice cold saline. The lavage fluid was then added to two volumes of ice cold methanol (final methanol concentration 66%) to lyse cells and precipitate protein. Eicosanoids were determined by EIA as described above.

[5] = test system: carrageenan induced paw edema; assay: Carrageenan induced paw edema (CPE) in rats; type: in vivo; conditions: rat; for inhibition in vivo at 10 mg/kg / CPE % Inhib. @ 10 mpk: 10 mpk oral, 3 hours after carrageenan; for inhibition in vivo at 10 mg/kg: read-out: CPE % Inhib. @ 10 mpk
Method: as §2, §3
Hingpaw edema was […] in male rats as described by Winter et al., Proc. Soc. Exp. Biol. Med., 1962, 111, 544. Briefly, male Sprague-Dawley rats weighing between 170 and 190 g were administered test compounds orally 1 hour prior to the subplantar injection of 0.1 ml of 1% sodium carrageenan (lambda carrageenan, Sigma Chemical Co., St Louis, Mo.) into the right hindpaw. Right paw volumes (ml) were measured immediately following injection of carrageenan for baseline volume measurements using a Buxco plethysmograph (Buxco Electronics, Inc., Troy, N.Y.). Three hours after the injection of carrageenan, right paws were remeasured and paw edema calculated for each rat by subtracting the zero time reading from the 3 hour reading. Data are reported as mean percent inhibition +/−SEM. Statistical significance of results was analyzed by Dunnetts multiple comparison test where p<0.05 was considered statistically significant.

[6] = biological target: T3, Human Whole Platelet Cyclooxygenase-1 (Homo sapiens, UniProt P23219); assay: Human Whole Platelet Cyclooxygenase-1 assay (HWPX); type: cell-based; conditions: for pIC50: read-out: HWPX IC50 (parenthetical value)
T3 construct: from tissue; host or cells: human blood: isolated platelets (A4) or heparinised whole blood (A9)
Procedure, shortened: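 Washed platelets from healthy-donor ACD blood were pre-incubated with compound for 10 min, then stimulated with calcium ionophore A23187 (8.8 μM final) for 10 min. Reaction stopped with cold 6 mM EDTA; thromboxane in supernatants quantified with a commercial kit.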

[7] = biological target: T4, human amnionic whole cell cyclooxygenase-2 (WISH cells) (Homo sapiens, UniProt P35354); assay: IL-1β induced PGE2 production in WISH cells; type: cell-based; conditions: read-out: Wish IC50 (parenthetical value)
T4 construct: endogenous in cells; host or cells: human amnionic WISH cells, induced with IL-1beta
T4 sequence (P35354 18-604): T1 sequence (P35354 18-604)
Procedure, shortened: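 Confluent (80%) WISH cells were stimulated with 5 ng/ml IL-1β in serum-free Neuman-Tytell medium, with or without test compound in DMSO (0.01% v/v). PGE2 in the culture medium was measured by EIA against standards prepared in the same medium, read by optical density.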

[8] = 100 μM, read-out: RHUCX1 % Inh. at Dose
[9] = read-out: RHUCX2 % Inh. at Dose
[10] = read-out: RHUCX1 % Inh. at Dose
[11] = read-out: HWPX % Inhib. at Dose

T3 sequence (P23219 24-599): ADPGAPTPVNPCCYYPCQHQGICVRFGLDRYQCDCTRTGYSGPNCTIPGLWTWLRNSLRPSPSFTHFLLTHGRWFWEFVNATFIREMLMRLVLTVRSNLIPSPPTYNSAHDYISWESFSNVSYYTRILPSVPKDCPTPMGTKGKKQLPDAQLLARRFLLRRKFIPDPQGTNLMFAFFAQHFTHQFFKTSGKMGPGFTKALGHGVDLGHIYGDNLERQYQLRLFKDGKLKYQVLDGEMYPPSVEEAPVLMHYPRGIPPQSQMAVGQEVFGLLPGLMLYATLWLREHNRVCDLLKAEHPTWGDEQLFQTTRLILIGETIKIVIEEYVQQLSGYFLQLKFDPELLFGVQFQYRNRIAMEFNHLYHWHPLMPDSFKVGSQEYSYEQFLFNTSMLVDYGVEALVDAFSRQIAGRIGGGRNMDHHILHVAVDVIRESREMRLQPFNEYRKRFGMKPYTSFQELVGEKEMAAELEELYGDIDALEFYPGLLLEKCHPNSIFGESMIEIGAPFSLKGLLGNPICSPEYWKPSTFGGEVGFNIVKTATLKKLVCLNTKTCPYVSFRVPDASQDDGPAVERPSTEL
T2 sequence (P23219 24-599): as above

Row | SMILES | pIC50 [2] | inhibition at 100 µM [3, 8] [%] | melting point | pIC50 [6] | inhibition at 0.1 µM [2, 9] [%] | inhibition at 1 µM [2, 9] [%] | pIC50 [7] | inhibition in vivo at 3 mg/kg [1] [%] | inhibition in vivo at 10 mg/kg [4] [%] | inhibition in vivo at 10 mg/kg [5] [%] | also measured
1 | CS(=O)(=O)c1ccc(-c2cnn(CC(F)(F)F)c(=O)c2-c2ccc(Cl)cc2)cc1 [Example 58, 2-(2,2,2-Trifluoroethyl)-4-(4-chlorophenyl)-5-[4-(methylsulfonyl)phenyl]-3(2H)-pyridazinone] | 6.02 | 0 | 55 to 57 °C | – | – | – | – | 67 | 42 | 14 | –
2 | CCCc1ccc(-c2c(-c3ccc(S(C)(=O)=O)cc3)cnn(CC(F)(F)F)c2=O)cc1 [Example 66, 2-(2,2,2-Trifluoroethyl)-4-(4-n-proylphenl)-5-[4-(methylsulfonyl)phenyl]-3(2H)-pyridazinone] | – | – | – | – | – | – | – | – | – | – | CAP % Inhib. @ 3 mpk [1]: 0%; CIP % Inhib. @ 10 mpk [4]: 59%; CPE % Inhib. @ 10 mpk [5]: 7%
3 | NS(=O)(=O)c1ccc(-c2cnn(CC(F)(F)F)c(=O)c2-c2ccc(Cl)cc2)cc1 [Example 69, 2-(2,2,2-Trifluoroethyl)-4-(4-chlorophenyl)-5-[4-(aminosulfonyl)phenyl]-3(2H)-pyridazinone] | – | 2 | 154 to 156 °C | 5.94 | 29 | 88 | 7.70 | 87 | 61 | 45.5 | inhibition at 0.01 µM ([2]; 0.01 μM, read-out: RHUCX2 % Inh. at Dose): 30%; CPE ED30 ([5]; oral): ED30 = 5.4
4 | C[S+]([O-])c1ccc(-c2cnn(CC(F)(F)F)c(=O)c2-c2ccc(Cl)cc2)cc1 (stereo not drawn) [Example 77] | – | 35 | 154 to 155 °C | 5.06 | – | 39 | 6.90 | – | 51 | 21 | inhibition at 10 µM ([2]; 10 μM, read-out: RHUCX2 % Inh. at Dose): 82%
5 | NS(=O)(=O)c1ccc(-c2cnn(CC(F)(F)F)c(=O)c2-c2ccc(Cl)c(F)c2)cc1 [Example 80, 2-(2,2,2-Trifluoroethyl)-4-(4-chloro-3-fluorophenyl)-5-[4-(aminosulfonyl)phenyl]-3(2H)-pyridazinone] | 7.19 | – | 214 to 215 °C | – | – | – | – | 91 | 60 | 28.5 | inhibition at 1 µM ([3]; 1 μM, read-out: RHUCX1 % Inh. at Dose): 37%; inhibition at 10 µM [3, 10]: 41%
6 | NS(=O)(=O)c1ccc(-c2cnn(CC=C(Cl)Cl)c(=O)c2-c2ccc(F)cc2)cc1 [Example 119, 2-(3,3-Dichloro-2-2-propenyl)-4-(4-fluorophenyl)-5-[4-(aminosulfonyl)phenyl)-3(2H)-pyridazinone] | 7.57 | – | 184 to 185 °C | 7.12 | – | – | 9.00 | 76 | 82 | 27 | pIC50 [3]: 6.75
7 | CS(=O)(=O)c1ccc(-c2cnn(C3CCCCC3)c(=O)c2-c2ccc(F)cc2)cc1 [Example 120, 2-Cyclohexyl-4-(4-fluorophenyl)-5-[4-(methylsulfonyl)phenyl]-3(2H)-pyridazinone] | – | 15 | 169 to 171 °C | – | 45 | 97 | 7.60 | – | 5 | 11 | inhibition at 1 µM [6, 11]: 58%; inhibition at 3 µM ([6]; 3 μM, read-out: HWPX % Inhib. at Dose): 74%
8 | CS(=O)(=O)c1ccc(-c2cnn(-c3ccccc3F)c(=O)c2-c2ccc(F)cc2)cc1 [Example 185, 2-(2-Fluorophenyl)-4-(4-fluorophenyl)-5-[4-(methlsulfonyl)phenyl]-3(2H)-pyridazinone] | – | – | – | – | – | – | – | – | – | – | CAP % Inhib. @ 3 mpk [1]: 53%; CIP % Inhib. @ 10 mpk [4]: 59%; CPE % Inhib. @ 10 mpk [5]: 20%

Continued, in another order:

Row | pIC50 [2] | inhibition at 100 µM [3, 8] [%] | melting point | pIC50 [6] | inhibition at 0.1 µM [2, 9] [%] | inhibition at 1 µM [2, 9] [%] | pIC50 [7] | SMILES | inhibition in vivo at 3 mg/kg [1] [%] | inhibition in vivo at 10 mg/kg [4] [%] | inhibition in vivo at 10 mg/kg [5] [%] | also measured
9 | 8.30 | – | – | – | – | – | 7.39 | CS(=O)(=O)c1ccc(-c2cnn(C3CCCC3)c(=O)c2-c2ccc(F)cc2)cc1 [Example 121, 2-Cyclopentyl-4-(4-fluorphenyl)-5-[4-(methylsulfonyl)phenyl]-3(2H)-pyridazinone] | – | – | – | RHUCX1 % Inh. at Dose (μM) ([3]; 100 μM): 0 @ 100%; CIP % Inhib. @ 10 mpk [4]: 19%; CPE % Inhib. @ 10 mpk [5]: 8%
10 | – | – | 214 to 216 °C | 5.14 | – | – | 7.52 | CS(=O)(=O)c1ccc(-c2cnn(-c3ccc(Cl)cc3)c(=O)c2-c2ccc(F)cc2)cc1 [Example 160, 2-(4-Chlorophenyl)-4-(4-fluorophenyl)-5-[4-(methylsulfonyl)phenyl]-3(2H)-pyridazinone] | – | 56 | 35 | –
11 | – | 0 | 219 to 224 °C | – | 93 | 85 | 8.05 | Cc1ccc(-n2ncc(-c3ccc(S(C)(=O)=O)cc3)c(-c3ccc(F)cc3)c2=O)s1 [Example 168] | – | 0 | 6 | inhibition at 1 µM [6, 11]: 47%
12 | 7.15 | – | 109 to 110 °C | – | – | – | – | CS(=O)(=O)c1ccc(-c2cnn(-c3ccc(F)c(F)c3)c(=O)c2-c2ccc(F)cc2)cc1 [Example 182, 2-(3,4-Difluorophenyl)-4-(4-fluorophenyl)-5-[4-(methylsulfonyl)phenyl]-3(2H)-pyridazinone] | 98 | 59 | 27 | pIC50 [3]: 5.30
13 | – | 82 | 185 to 189 °C and 188 to 191 °C | – | 78 | 99 | – | NS(=O)(=O)c1ccc(-c2cnn(Cc3ccccc3)c(=O)c2-c2ccc(F)cc2)cc1 [Example 384, 2-Benzyl-4-(4-fluorophenyl)-5-[4-(aminosulfonyl)phenyl]-3(2H)-pyridazinone] | 51 | 51 | 15 | inhibition at 10 µM [3, 10]: 49%
